biological target: T1, Pol theta (1-899) (Homo sapiens, UniProt O75417); experiment: Pol theta ATPase activity, NADH oxidation-coupled enzymatic assay (ATPase NADH coupling: Standard Screening: hPolQ); format: biochemical; conditions: Pol theta (1-899) 5 nM, NADH oxidation-coupled ATPase assay; compounds of Table 3
T1 construct: Pol theta (1-899) (5 nM) in assay buffer
Method in brief: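 Rates of ATP hydrolysis taken from 60-min A340 traces of NADH oxidation via PK/LDH coupling, then fit four-parameter for IC50, Hill slope and max inhibition. Enzyme (5 nM, 1-899) and compounds preincubated 15 min before ATP 100 μM and 50-thymine ssDNA 300 nM (stock, equal volume added).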

T1 sequence (O75417 1-899): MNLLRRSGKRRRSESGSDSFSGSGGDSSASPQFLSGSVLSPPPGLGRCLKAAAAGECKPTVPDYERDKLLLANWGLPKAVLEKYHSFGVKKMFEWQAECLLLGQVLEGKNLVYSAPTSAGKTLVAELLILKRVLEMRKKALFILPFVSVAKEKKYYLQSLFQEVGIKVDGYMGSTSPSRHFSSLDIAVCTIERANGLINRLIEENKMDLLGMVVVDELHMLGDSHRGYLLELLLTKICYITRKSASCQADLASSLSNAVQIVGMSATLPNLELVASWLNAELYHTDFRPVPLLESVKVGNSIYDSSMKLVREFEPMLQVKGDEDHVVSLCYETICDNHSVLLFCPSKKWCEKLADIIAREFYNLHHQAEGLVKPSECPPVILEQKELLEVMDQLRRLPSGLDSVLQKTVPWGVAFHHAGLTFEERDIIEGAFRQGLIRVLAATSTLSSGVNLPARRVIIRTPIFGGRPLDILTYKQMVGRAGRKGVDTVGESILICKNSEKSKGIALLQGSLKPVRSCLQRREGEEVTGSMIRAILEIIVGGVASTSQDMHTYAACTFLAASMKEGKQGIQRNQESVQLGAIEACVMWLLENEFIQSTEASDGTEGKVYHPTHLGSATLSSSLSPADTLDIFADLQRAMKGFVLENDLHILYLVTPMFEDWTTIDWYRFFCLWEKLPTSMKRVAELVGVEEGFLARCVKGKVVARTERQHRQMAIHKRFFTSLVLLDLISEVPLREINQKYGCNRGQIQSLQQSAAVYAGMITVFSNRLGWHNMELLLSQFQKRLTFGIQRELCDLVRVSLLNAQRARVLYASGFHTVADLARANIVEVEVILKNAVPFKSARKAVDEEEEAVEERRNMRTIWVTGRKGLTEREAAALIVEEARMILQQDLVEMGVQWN

| Compound | IC50 |
| --- | --- |
| COc1nnc(NC(=O)c2cnc(C)cc2-c2cc(F)cc(C#N)c2)s1 [Example 439, 4-(3-cyano-5-fluorophenyl)-N-(5-methoxy-1,3,4-thiadiazol-2-yl)-6-methylpyridine-3-carboxamide] | 0.5 to 1 µM |
| COc1nnc(NC(=O)c2cnc(C)cc2-c2cccc(O)c2)s1 [Example 452, 4-(3-hydroxyphenyl)-N-(5-methoxy-1,3,4-thiadiazol-2-yl)-6-methylpyridine-3-carboxamide] | 1 to 10 µM |
| COc1nnc(NC(=O)c2cnc(C)cc2-c2cccc(N3CCOCC3)c2)s1 [Example 415, N-(5-methoxy-1,3,4-thiadiazol-2-yl)-6-methyl-4-[3-(morpholin-4-yl)phenyl]pyridine-3-carboxamide] | 1 to 10 µM |
| COc1cnc(Cl)cc1-c1cc(C)ncc1C(=O)Nc1nnc(O[C@H]2CN3CCC2CC3)s1 [Example 306, (R)-2′-chloro-5′-methoxy-6-methyl-N-(5-(quinuclidin-3-yloxy)-1,3,4-thiadiazol-2-yl)-[4,4′-bipyridine]-3-carboxamide] | 1 to 10 µM |
| COc1nnc(NC(=O)c2cnc(C)cc2-c2cccnc2C)s1 [Example 461, N-(5-methoxy-1,3,4-thiadiazol-2-yl)-2,6′-dimethyl-[3,4′-bipyridine]-3′-carboxamide] | 1 to 10 µM |
| COc1nnc(NC(=O)c2cnc(C)cc2-c2ccccc2C(C)C)s1 [Example 392, N-(5-methoxy-1,3,4-thiadiazol-2-yl)-6-methyl-4-[2-(propan-2-yl)phenyl]pyridine-3-carboxamide] | 1 to 10 µM |
| COc1nnc(NC(=O)c2cnc(C)cc2-c2cccnc2)s1 [Example 331, N-(5-methoxy-1,3,4-thiadiazol-2-yl)-6′-methyl-[3,4′-bipyridine]-3′-carboxamide] | 1 to 10 µM |
| COc1nnc(NC(=O)c2cnc(C)cc2-c2coc3ccccc23)s1 [Example 436, 4-(1-benzofuran-3-yl)-N-(5-methoxy-1,3,4-thiadiazol-2-yl)-6-methylpyridine-3-carboxamide] | 1 to 10 µM |
| CNS(=O)(=O)c1cccc(-c2cc(C)ncc2C(=O)Nc2nnc(OC)s2)c1 [Example 401, N-(5-methoxy-1,3,4-thiadiazol-2-yl)-6-methyl-4-[3-(methylsulfamoyl)phenyl]pyridine-3-carboxamide] | 1 to 10 µM |
| COc1nnc(NC(=O)c2cnc(C)cc2-c2ccc3c(cnn3C)c2)s1 [Example 449, N-(5-methoxy-1,3,4-thiadiazol-2-yl)-6-methyl-4-(1-methyl-1H-indazol-5-yl)pyridine-3-carboxamide] | 0.5 to 1 µM |
| COc1nnc(NC(=O)c2cnc(C)cc2-c2cnc(C(F)(F)F)cc2C)s1 [Example 424, N-(5-methoxy-1,3,4-thiadiazol-2-yl)-4,6′-dimethyl-6-(trifluoromethyl)-[3,4′-bipyridine]-3′-carboxamide] | 1 to 10 µM |
| COc1ccc(-c2cc(C)ncc2C(=O)Nc2nnc(OC)s2)c(OC)c1 [Example 462, 4-(2,4-dimethoxyphenyl)-N-(5-methoxy-1,3,4-thiadiazol-2-yl)-6-methylpyridine-3-carboxamide] | 0.2 to 0.5 µM |
| COc1nnc(NC(=O)c2cnc(C)cc2-c2ccc3c(c2)OCCN3C)s1 [Example 418, N-(5-methoxy-1,3,4-thiadiazol-2-yl)-6-methyl-4-(4-methyl-3,4-dihydro-2H-1,4-benzoxazin-7-yl)pyridine-3-carboxamide] | 1 to 10 µM |
| COc1nnc(NC(=O)c2cnc(C)cc2-c2cnn(Cc3ccccc3)c2)s1 [Example 468, 4-(1-benzyl-1H-pyrazol-4-yl)-N-(5-methoxy-1,3,4-thiadiazol-2-yl)-6-methylnicotinamide] | 1 to 10 µM |
| COc1nnc(NC(=O)c2cnc(C)cc2-c2cccc(CN(C)C)c2)s1 [Example 410, 4-(3-((dimethylamino)methyl)phenyl)-N-(5-methoxy-1,3,4-thiadiazol-2-yl)-6 methylnicotinamide] | 1 to 10 µM |

same assay, conditions: Table 4; Pol theta (1-899) 5 nM, ATP, dT50 ssDNA

| Compound | IC50 |
| --- | --- |
| COc1cnc(Cl)cc1-c1cc(C)ncc1C(=O)Nc1nnc(O[C@@H]2CC[C@H](O)C2)s1 (single isomer, unassigned) [Example 59] | ≤ 0.2 µM |
| COc1cnc(Cl)cc1-c1cc(C)ncc1C(=O)Nc1nnc(OCC(F)(F)F)s1 [Example 29, 2′-chloro-5′-methoxy-6-methyl-N-(5-(2,2,2-trifluoroethoxy)-1,3,4-thiadiazol-2-yl)-(4,4′-bipyridine)-3-carboxamide] | ≤ 0.2 µM |
| COc1nnc(NC(=O)c2cnc(C)cc2-c2cc(Cl)ncc2C)s1 [Example 39, 2′-chloro-N-(5-methoxy-1,3,4-thiadiazol-2-yl)-5′,6-dimethyl-(4,4′-bipyridine)-3-carboxamide] | ≤ 0.2 µM |
| COc1cnc(Cl)cc1-c1cc(C)ncc1C(=O)Nc1nnc(O)s1 [Example 31, 2′-chloro-N-(5-hydroxy-1,3,4-thiadiazol-2-yl)-5′-methoxy-6-methyl-(4,4′-bipyridine)-3-carboxamide] | 0.2 to 0.5 µM |
| COc1cnc(Cl)cc1-c1cc(C)ncc1C(=O)Nc1nnc(O[C@H]2CC[C@@H](O)C2)s1 [Example 46, 2′-chloro-N-(5-(((1s,3r)-3-hydroxycyclopentyl)oxy)-1,3,4-thiadiazol-2-yl)-5′-methoxy-6-methyl-(4,4′-bipyridine)-3-carboxamide] | ≤ 0.2 µM |

same assay, conditions: Table 5; Pol theta (1-899) 5 nM, ATP, dT50 ssDNA

| Compound | IC50 |
| --- | --- |
| COc1nnc(NC(=O)c2cnc(C)cc2-c2ccc3nscc3c2)s1 [Example 105, 4-(benzo(c)isothiazol-5-yl)-N-(5-methoxy-1,3,4-thiadiazol-2-yl)-6-methylnicotinamide] | 1 to 10 µM |
| COc1cnc(C)c(F)c1-c1cc(C)ncc1C(=O)Nc1nnc(O[C@H]2CC[C@@](C)(O)CC2)s1 (single isomer, unassigned) [Example 221, 3′-fluoro-N-(5-(((1s,4s)-4-hydroxy-4-methylcyclohexyl)oxy)-1,3,4-thiadiazol-2-yl)-5′-methoxy-2′,6-dimethyl-(4,4′-bipyridine)-3-carboxamide] | ≤ 0.2 µM |
| COc1cnc(Cl)cc1-c1cc(C)ncc1C(=O)Nc1nnc(O[C@@H]2CO[C@H](C)C2)s1 (single isomer, unassigned) [Example 189] | ≤ 0.2 µM |
| COc1cnc(Cl)cc1-c1cc(C)ncc1C(=O)Nc1nnc(O[C@H]2CC[C@](C)(O)CC2)s1 (single isomer, unassigned) [Example 140, 2′-chloro-N-(5-(((1r,4r)-4-hydroxy-4-methylcyclohexyl)oxy)-1,3,4-thiadiazol-2-yl)-5′-methoxy-6-methyl-(4,4′-bipyridine)-3-carboxamide] | ≤ 0.2 µM |
| COc1cnc(Cl)cc1-c1cc(C)ncc1C(=O)Nc1nnc(O[C@H]2CC[C@@H](OC)CC2)s1 (single isomer, unassigned) [Example 124, 2′-chloro-5′-methoxy-N-(5-(((1s,4s)-4-methoxycyclohexyl)oxy)-1,3,4-thiadiazol-2-yl)-6-methyl-(4,4′-bipyridine)-3-carboxamide] | ≤ 0.2 µM |
| COc1cnc(Cl)cc1-c1cc(C2CCCC2)ncc1C(=O)Nc1nnc(O[C@@H]2CCOC2)s1 [Example 134, (R)-2′-chloro-6-cyclopentyl-5′-methoxy-N-(5-((tetrahydrofuran-3-yl)oxy)-1,3,4-thiadiazol-2-yl)-(4,4′-bipyridine)-3-carboxamide] | 0.5 to 1 µM |
| COc1cnc(Br)cc1-c1cc(C)ncc1C(=O)Nc1nnc(O[C@@H]2COC3(CC3)C2)s1 (single isomer, unassigned) [Example 226] | ≤ 0.2 µM |
| COc1cnc(Cl)cc1-c1cc(C)ncc1C(=O)Nc1nnc(O[C@H]2CC[C@H]2O)s1 (racemic) [Example 112, rac-2′-chloro-N-(5-((1R,2S)-2-hydroxycyclobutoxy)-1,3,4-thiadiazol-2-yl)-5′-methoxy-6-methyl-(4,4′-bipyridine)-3-carboxamide] | 0.2 to 0.5 µM |
| COc1cnc(Cl)c(F)c1-c1cc(C)ncc1C(=O)Nc1nnc(O[C@H]2CC[C@@H](OC)CC2)s1 (single isomer, unassigned) [Example 152, 2′-chloro-3′-fluoro-5′-methoxy-N-(5-(((1s,4s)-4-methoxycyclohexyl)oxy)-1,3,4-thiadiazol-2-yl)-6-methyl-(4,4′-bipyridine)-3-carboxamide] | ≤ 0.2 µM |
| COc1cnc(Cl)cc1-c1cc(C)ncc1C(=O)Nc1nnc(O[C@H]2CC[C@@H](CO)CC2)s1 [Example 169, 2′-chloro-N-(5-(((1s,4s)-4-(hydroxymethyl)cyclohexyl)oxy)-1,3,4-thiadiazol-2-yl)-5′-methoxy-6-methyl-(4,4′-bipyridine)-3-carboxamide] | ≤ 0.2 µM |
| COc1cnc(Cl)c(F)c1-c1cc(C)ncc1C(=O)Nc1nnc(O[C@H]2CC[C@](C)(O)CC2)s1 (single isomer, unassigned) [Example 172, 2′-chloro-3′-fluoro-N-(5-(((1r,4r)-4-hydroxy-4-methylcyclohexyl)oxy)-1,3,4-thiadiazol-2-yl)-5′-methoxy-6-methyl-(4,4′-bipyridine)-3-carboxamide] | ≤ 0.2 µM |
| COc1cnc(Cl)cc1-c1cc(C)ncc1C(=O)Nc1nnc(O[C@@H]2CO[C@@H](C)C2)s1 (single isomer, unassigned) [Example 190] | ≤ 0.2 µM |
| COc1nnc(NC(=O)c2cnc(OC3CC3)cc2-c2cc(Cl)ncc2OC)s1 [Example 196, 2′-chloro-6-cyclopropoxy-5′-methoxy-N-(5-methoxy-1,3,4-thiadiazol-2-yl)-(4,4′-bipyridine)-3-carboxamide] | 0.5 to 1 µM |
| COc1cnc(Cl)cc1-c1cc(C)ncc1C(=O)Nc1nnc(O[C@H]2CCO[C@H]2C)s1 (racemic) [Example 92, rac-2′-Chloro-5′-methoxy-6-methyl-N-(5-(((2R,3R)-2-methyltetrahydrofuran-3-yl)oxy)-1,3,4-thiadiazol-2-yl)-(4,4′-bipyridine)-3-carboxamide] | 0.2 to 0.5 µM |

— US20240287080A1 (IDEAYA Biosciences Inc., priority 2021, published 2024)
